{"source": "patent US20230026577A1", "about": "“Ophthalmic Pharmaceutical Compositions” (Vanda Pharmaceuticals Inc., priority 2019, published 2023)", "key": {"[1]": {"assay": "Forced degradation studies of the compound of Formula I", "type": "physicochemical", "text": "The formation of the compound of Formula II is slowed and/or eliminated by inclusion of an \"antioxidant system,\" as described herein, in the novel ophthalmic solution compositions described herein."}, "[2]": {"assay": "Solubility of the compound of Formula I in various materials (HPLC with UV detector)", "type": "physicochemical", "experimental": "The solubility of the compound of Formula I in various materials is determined."}}, "data": [{"compound": "CNc1nc(Nc2ccccc2)nc(OCC(F)(F)C(F)F)n1", "note": "[Formula I, N^2-methyl-N^4-phenyl-6-(2,2,3,3-tetrafluoropropoxy)-1,3,5-triazine-2,4-diamine]", "values": [{"measurement": "Formation of the compound of Formula II", "setting": "[1]", "value": "not formed"}, {"measurement": "solubility", "setting": "[2]; 0.2% poloxamer in water, aqueous with cosolvent or surfactant or cyclodextrin", "value": 10, "unit": "µg/mL"}, {"measurement": "solubility", "setting": "[2]; 0.5% polyoxyl 40 hydrogenated castor oil in water, aqueous with cosolvent or surfactant or cyclodextrin", "value": 70, "unit": "µg/mL"}, {"measurement": "solubility", "setting": "[2]; 1% polysorbate-80 in water, aqueous with cosolvent or surfactant or cyclodextrin", "value": 100, "unit": "µg/mL"}, {"measurement": "solubility", "setting": "[2]; 1.4% polyvinyl alcohol in water, aqueous with cosolvent or surfactant or cyclodextrin, 1.4% Poly Vinyl Alcohol in water", "value": 10, "unit": "µg/mL"}, {"measurement": "solubility", "setting": "[2]; 5% polyoxyl 35 castor oil in water, aqueous with cosolvent or surfactant or cyclodextrin", "value": 480, "unit": "µg/mL"}, {"measurement": "solubility", "setting": "[2]; 7% polyoxyl 40 stearate in water, aqueous with cosolvent or surfactant or cyclodextrin", "value": 620, "unit": "µg/mL"}, {"measurement": "solubility", "setting": "[2]; castor oil, oil or lipid", "value": 1090, "unit": "µg/mL"}, {"measurement": "solubility", "setting": "[2]; glycerine, organic solvent or mixture", "value": 100, "unit": "µg/mL"}, {"measurement": "solubility", "setting": "[2]; mineral oil, oil or lipid", "value": 40, "unit": "µg/mL"}, {"measurement": "solubility", "setting": "[2]; polyethylene glycol 400 (PEG-400), organic solvent or mixture", "value": 14500, "unit": "µg/mL"}, {"measurement": "solubility", "setting": "[2]; propylene glycol (PG), organic solvent or mixture", "value": 4960, "unit": "µg/mL"}, {"measurement": "solubility", "setting": "[2]; purified water, water", "value": "< 10", "unit": "µg/mL"}]}]}
